Assay results as given in PMC8066102, “Metabolic Profiles of New Unsymmetrical Bisacridine Antitumor Agents in Electrochemical and Enzymatic Noncellular Systems and in Tumor Cells” (Pharmaceuticals, 2021).
Like-named read-outs stand apart in the source and are kept apart here.

What was measured:
[1] = pKa determination by spectrophotometric titration; type: physicochemical; conditions: 23 aqueous buffer solutions, pH 1.5-11, pH 1.5, 0.02 mM compound, pH 1.5-11, UV-vis, principal component analysis
Procedure: The concentration of the compounds in the working solutions was 0.02 mM, pH was changed in the range 1.5–11 at 23 buffer solutions: 1.5–3.5 (interval 0.5 unit—HCl solution), 4.0–5.5 (interval 0.5 unit—acetic buffer), 6.1–7.5 (interval 0.2 unit—PIPES (2-[4-(2-sulphoethyl)piperazine-1-ethanesulphonic acid) buffer), 7.7–8.1 (interval 0.2 unit—HEPES (4-(2-hydroxyethyl)piperazine-1-ethanesulphonic acid) buffer) and 9–11 (interval 1 unit—borate buffer).
PKa values for tested UAs were determined by spectrophotometric titration using a Cary 300 Bio instrument. The UV-vis spectra obtained for all solutions in the examined pH range were subjected to the chemometric technique principal component analysis. This procedure makes it possible to determine the number of spectral forms present in the tested samples and to estimate the mole fractions for each of them. To determine pKa values the relationships between the mole fractions of individual spectral forms and the pH of the samples were used. The first approximation of pKa values have been assigned to the values of pH corresponding to the central points of each titration wave. Numerical optimization by the adjustment of pKa values to the obtained molar fractions allowed to refine these values and the cross-validation procedure let to determine their standard deviations.

UGT 2B17 = molecular target: T1, UGT 2B17 (Homo sapiens, UniProt O75795); test: Glucuronidation with recombinant UGT2B17; type: in vitro ADME; set-up: key: −: the lack of UGT activity; +: the significant UGT activity; conditions: 0.05 mM compound, 1 mg/mL UGT, 5 mM UDPGA
T1 construct: purchased Corning, NY, USA (through DIAG-MED, Poland); host or cells: baculovirus-insect cells (Supersomes)
T1 sequence (O75795 24-530): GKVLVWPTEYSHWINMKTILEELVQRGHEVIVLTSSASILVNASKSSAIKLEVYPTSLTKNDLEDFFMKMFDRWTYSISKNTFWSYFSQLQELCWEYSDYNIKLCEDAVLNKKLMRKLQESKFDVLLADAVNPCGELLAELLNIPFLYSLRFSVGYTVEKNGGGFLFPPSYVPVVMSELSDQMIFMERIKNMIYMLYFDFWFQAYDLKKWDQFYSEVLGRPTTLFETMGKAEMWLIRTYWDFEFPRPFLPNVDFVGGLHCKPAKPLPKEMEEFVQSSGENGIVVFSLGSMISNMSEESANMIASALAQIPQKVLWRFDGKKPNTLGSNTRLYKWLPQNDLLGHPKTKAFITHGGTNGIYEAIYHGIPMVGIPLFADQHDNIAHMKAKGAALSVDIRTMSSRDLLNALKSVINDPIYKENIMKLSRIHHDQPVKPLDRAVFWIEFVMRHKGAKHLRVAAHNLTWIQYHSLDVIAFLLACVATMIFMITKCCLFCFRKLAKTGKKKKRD
Procedure: (§1) Recombinant UGT isoform protein (1 mg/mL) was assayed for activity toward tested UAs as follows. The proteins were incubated in a buffer containing 0.1 M HEPES (pH 7.4), 8 mM MgCl2 and alamethicin (25 μg/mL) with either 0.05 mM substrate in total volume 70 µL (alamethicin was added to permeabilize the membrane). Substrates were also in buffer HEPES, pH 7.4. Reactions were started by the addition of UDPGA (5 mM) and were incubated for specified time at 37 °C. The reactions were stopped by the addition of 8.75 µL of 1 M HCl, followed by centrifugation at 13400 rpm for 10 min to pellet the denatured protein. The supernatant fractions were used for HPLC analysis. Control reactions omitting substrate were run with each assay. All incubations were performed in two repetitions.

UGT2B15 = molecular target: T2, UGT2B15 (Homo sapiens, UniProt P54855); test: Glucuronidation with recombinant UGT2B15; type: in vitro ADME; set-up: key: −: the lack of UGT activity; +: the significant UGT activity; conditions: 0.05 mM compound, 1 mg/mL UGT, 5 mM UDPGA
T2 construct: purchased Corning, NY, USA (through DIAG-MED, Poland); host or cells: baculovirus-insect cells (Supersomes)
T2 sequence (P54855 24-530): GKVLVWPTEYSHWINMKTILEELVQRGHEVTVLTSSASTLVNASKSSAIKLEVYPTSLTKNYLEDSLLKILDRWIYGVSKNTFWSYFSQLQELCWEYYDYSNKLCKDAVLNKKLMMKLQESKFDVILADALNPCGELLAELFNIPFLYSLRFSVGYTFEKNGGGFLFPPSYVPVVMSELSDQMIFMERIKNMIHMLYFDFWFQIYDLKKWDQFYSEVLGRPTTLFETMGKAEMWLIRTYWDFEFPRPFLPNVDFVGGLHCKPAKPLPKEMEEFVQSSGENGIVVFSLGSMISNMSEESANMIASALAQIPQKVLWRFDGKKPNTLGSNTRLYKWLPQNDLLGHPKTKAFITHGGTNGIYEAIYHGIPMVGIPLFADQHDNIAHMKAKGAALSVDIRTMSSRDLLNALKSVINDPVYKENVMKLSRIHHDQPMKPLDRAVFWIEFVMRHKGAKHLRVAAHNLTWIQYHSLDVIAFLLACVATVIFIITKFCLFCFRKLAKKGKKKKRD
Procedure: as §1

UGT 1A9 = molecular target: T3, UGT 1A9 (Homo sapiens, UniProt O60656); test: Glucuronidation with recombinant UGT1A9; type: in vitro ADME; set-up: key: −: the lack of UGT activity; +: the significant UGT activity; conditions: 0.05 mM compound, 1 mg/mL UGT, 5 mM UDPGA
T3 construct: His tag; purchased Corning, NY, USA (through DIAG-MED, Poland); host or cells: baculovirus-insect cells (Supersomes); Results say Sf9 cells
T3 sequence (O60656 26-530): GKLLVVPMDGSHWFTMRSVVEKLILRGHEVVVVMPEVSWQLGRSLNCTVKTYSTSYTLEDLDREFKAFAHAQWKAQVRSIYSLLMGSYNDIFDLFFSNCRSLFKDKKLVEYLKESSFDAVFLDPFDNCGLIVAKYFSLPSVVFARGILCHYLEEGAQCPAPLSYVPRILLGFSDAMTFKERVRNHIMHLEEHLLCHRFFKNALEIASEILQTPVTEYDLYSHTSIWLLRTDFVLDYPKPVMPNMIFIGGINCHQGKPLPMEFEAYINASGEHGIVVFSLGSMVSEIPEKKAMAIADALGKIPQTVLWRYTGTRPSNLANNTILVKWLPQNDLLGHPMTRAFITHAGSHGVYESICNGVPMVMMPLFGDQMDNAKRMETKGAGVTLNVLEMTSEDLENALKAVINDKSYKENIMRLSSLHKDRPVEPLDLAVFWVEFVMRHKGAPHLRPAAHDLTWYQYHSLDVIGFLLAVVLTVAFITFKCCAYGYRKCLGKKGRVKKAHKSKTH
Procedure: as §1

pKa ([1]; read-out: pKa 1)	pKa ([1]; read-out: pKa 2)	pKa ([1]; read-out: pKa 3)	Glucuronidation potency UGT 2B17 (UGT 2B17)	Glucuronidation potency UGT 2B15 (UGT2B15)	Glucuronidation potency UGT 1A9 (UGT 1A9)	Structure (SMILES)
2.22	6.01	7.41	−	−	−	CN(CCCNc1c2ccccc2nc2cccc([N+](=O)[O-])c12)CCCNc1ccc2ncn3c4ccccc4c(=O)c1c23 [C-2028]
2.33	6.37	7.5	−	−	+	Cc1ccc([N+](=O)[O-])c2c(NCCCN(C)CCCNc3ccc4ncn5c6ccc(O)cc6c(=O)c3c45)c3ccccc3nc12 [C-2045]
2.19	6.19	7.49	−	−	−	Cc1ccc([N+](=O)[O-])c2c(NCCCN(C)CCCNc3ccc4ncn5c6ccccc6c(=O)c3c45)c3ccccc3nc12 [C-2053]
